Results as given in PubChem BioAssay AID1902 (Broad Institute, 2009).
The source made the active and inactive calls.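 The calls were made as follows: active = EC50 no more than a set limit of log units above the highest dose; inactive = the rest.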

Target: S. pyogenes SKKanGAS, kanamycin survival, BacTiterGlo, 6 h
Test: S. pyogenes SKKanGAS kanamycin growth inhibitors – SKKanGAS strain, luminescence, dose confirmation, streptokinase promoter inhibitor project, dose response (AID 1902);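 also: lower survival reflects blocked streptokinase promoter driving kanamycin resistance gene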

Row | SMILES | EC50
1 | Cc1cccc(NC(=O)C(=O)NNC(=O)c2ccc(C(C)(C)C)cc2)c1 | 5.41 µM
2 | CS(=O)(=O)Nc1ccc(C2=NN(C(=O)C3CCCCC3)C(c3cccs3)C2)cc1 (centres undefined) | 3.94 µM
3 | C=C(C)COc1ccc(-c2[nH]ncc2Oc2cccc(OC)c2)c(O)c1 | 5.93 µM
4 | COc1cc(C(=O)NNC(=S)NC(=O)c2ccc(F)cc2)cc(OC)c1OC | 0.989 µM
5 | COC(=O)c1sc(N2C(=O)C(O)=C(C(=O)c3ccc(C)o3)C2c2ccc([N+](=O)[O-])cc2)nc1C (centres undefined) | 4.1 µM
6 | CC(C)=CCc1c(-c2ccc(O)cc2O)oc2c3c(cc(O)c2c1=O)OC(C)(C)C=C3 | 1.23 µM
7 | CC(C)(CN=C1NS(=O)(=O)c2ccccc21)CNC(=O)c1ccccc1 | > 15 µM (inactive)
8 | CCn1nc(-c2ccccc2)nc2c(=O)n(C)c(=O)nc1-2 | 1.54 µM
9 | COCCCNC(=S)NNC(=S)Nc1cccc(Cl)c1 | > 15 µM (inactive)
10 | Fc1ccc(Br)cc1C1C=C(c2ccc(Br)s2)Nc2ncnn21 (centres undefined) | 6.39 µM
11 | Cc1[nH]c(-c2ccc(F)cc2)cc1C(=O)N1CCN(c2cccc(Cl)c2)CC1 | 4.92 µM
12 | Cc1ccc(C(C)C)c(OCc2ccc(C(=O)N/N=C/c3cccc(O)c3O)cc2)c1 | 5.66 µM
13 | C=CCn1c(COc2ccccc2)nnc1SCC(=O)N/N=C/c1cc(Cl)ccc1O | 3.32 µM
14 | COc1ccc(/C=N\NC(=O)c2cc(O)c(O)c(O)c2)cc1COc1ccc(C(=O)OCC(C)C)cc1 | 7.28 µM
15 | COc1ccc(/C=C/c2ccc3cccc(O)c3n2)c(OC)c1OC | 3.27 µM
16 | CO[C@H]1C=CO[C@@]2(C)Oc3c(C)c(O)c4c(O)c(c(C=NN5CCN(C)CC5)c(O)c4c3C2=O)NC(=O)C(C)=CC=C[C@H](C)[C@H](O)[C@@H](C)[C@@H](O)[C@@H](C)[C@H](OC(C)=O)[C@@H]1C | < 0.06 µM
17 | Cc1cccc2sc(NNC(=O)c3ccc(S(=O)(=O)N4CCCC(C)C4)cc3)nc12 (centres undefined) | 0.31 µM
18 | Cc1ccc2nc(-c3ccc(N)cc3)sc2c1 | > 15 µM (inactive)
19 | Cc1cc(C)c2nc(SCCc3ccccc3)nc(C)c2c1 | 5.85 µM
20 | CCOC(=O)C1CCN(C2=C(NS(=O)(=O)c3ccc(Cl)cc3)C(=O)c3ccccc3C2=O)CC1 | 7.15 µM
21 | COC(=O)C(Nc1ccccc1Cl)(c1cc(C)c(O)c(C)c1)C(F)(F)F (centres undefined) | 2.5 µM
22 | COc1ccc(N=C2NN=C(c3c(C)[nH]c4ccccc34)CS2)cc1 | 7.32 µM
23 | COc1ccc(NC(=O)c2cccc(-c3ccc(O)cc3)c2)cn1 | 13 µM
24 | Cc1ccc(/C=C/c2ccc(=O)n(Cc3ccccc3Cl)n2)cc1 | 6 µM
25 | COc1cccc(N=Nc2c(N)[nH]n3c(=O)cc(-c4ccccc4)nc23)c1 | 1.79 µM
26 | Cc1ccccc1C(=O)Nc1nc(=S)ss1 | 2.46 µM

Row | SMILES | EC50
27 | COc1ccc(C2CC(c3ccccc3)=NN2C(=O)c2cccs2)cc1 (centres undefined) | 7.84 µM
28 | O=C(Nc1cccc(NC(=O)c2ccccc2Cl)c1)c1ccc([N+](=O)[O-])o1 | 4.81 µM
29 | CCn1cc(C(=O)O)c(=O)c2cc(F)c(N3CCN(C(=S)NC(=O)c4cc(OC)cc(OC)c4)CC3)cc21 | 2.91 µM
30 | COc1ccc(/C=C/C(=O)NC(=S)NNC(=O)c2ccco2)cc1 | 1.67 µM
31 | Cc1cc2oc(=O)cc(CN(C)Cc3ccccc3Cl)c2cc1C | 4.2 µM
32 | CCOC(=O)c1ccc(NC(=O)CC2S/C(=N/N=C/c3c[nH]c4ccccc34)NC2=O)cc1 (centres undefined) | 7.73 µM
33 | COc1ccc(Cn2c(C3CCCCC3)nc3c(c(=O)c4ccccc4n3C)c2=O)cc1 | 3.2 µM
34 | Cc1ccc(-c2nc3cc(NS(=O)(=O)c4ccc(C)cc4)ccc3o2)cc1 | 6.28 µM
35 | Cc1cc(C)nc(NC(N)=NCCc2c[nH]c3ccccc23)n1 | 11.6 µM
36 | COc1cc(/C=N/NC(=O)c2cc(-c3c(C)nn(-c4ccccc4)c3C)n[nH]2)ccc1O | 2.97 µM
37 | CC(=O)Nc1ccc(C#Cc2ccc(NC(C)=O)cc2)cc1 | 1.19 µM
38 | Cc1ccc2ccc(C(Nc3ccccn3)c3ccccc3)c(O)c2n1 (centres undefined) | 0.705 µM
39 | CC(C)(C)C(=O)NC(=S)NNC(=O)c1ccc(Cl)cc1Cl | 0.402 µM
40 | CC(C)(C)c1cc(C(=O)NNc2cc(C(F)(F)F)ccc2Cl)n(Cc2ccccc2)n1 | 4.92 µM
41 | COc1ccc(/C=C/C(=O)NC(=S)NNC(=O)[C@H]2C[C@@H]2c2ccccc2)cc1OC | 0.362 µM
42 | Cc1cccc(CCNC(=O)CC2C(=O)NCCN2Cc2ccccc2C)n1 (centres undefined) | > 15 µM (inactive)
43 | CCC1(C)Cc2ccccc2-c2c1c(=O)n(Cc1ccccc1)c1nnnn21 (centres undefined) | 1.51 µM
44 | C/C(=N\Nc1cc(N2CCCCC2)nc(C)n1)c1ccc(Br)cc1 | 4.46 µM
45 | CC(C)c1ccc(NC(=O)NC(C)c2ccc3c(c2)OCO3)cc1 (centres undefined) | > 15 µM (inactive)
46 | O=C(O)c1ccc(NC(=S)NC(=O)c2cccc(COc3ccccc3)c2)cc1 | 4.45 µM
47 | O=C(NCc1nc(-c2ccc(C(F)(F)F)cc2)no1)Nc1cc(Cl)cc(Cl)c1 | 2.31 µM
48 | CC(C)[C@@H](C(=O)NC1CCCC1)N1C(=O)N2CCc3c([nH]c4ccccc34)[C@@]2(C)C1=O | > 15 µM (inactive)
49 | Cc1ccc(/C=C/C(=O)c2ccc([N+](=O)[O-])o2)cc1 | 5.27 µM
50 | CCOc1cc(/C=N/Nc2cc(C)nc(-n3nc(C)cc3C)n2)ccc1O | 0.853 µM
51 | CC(=O)c1cccc(OC(=O)c2ccc3c(=O)n4c(nc3c2)CCC4)c1 | 13.7 µM
52 | COc1cc(OC)cc(-c2cc3nc4c(c(N5CCN(c6ncccn6)CC5)n3n2)CCCC4)c1 | 6.28 µM

Row | SMILES | EC50
53 | CC(=O)N(CCC(Cc1ccccc1)c1ccc2c(c1)OCO2)Cc1ccc(Cl)cc1 (centres undefined) | 3.42 µM
54 | CC1CCC(C(=O)c2c(O)c3ccccc3oc2=O)CC1 (centres undefined) | 5.13 µM
55 | CSCC[C@H](NC(=O)c1nn(C)c(=O)c2ccccc12)c1nc2ccccc2[nH]1 | 2.85 µM
56 | O=C(NNC(=S)NC(=O)c1ccccc1)c1ccc([N+](=O)[O-])cc1 | 3.23 µM
57 | C=C(C)COc1ccc(-c2nc(N)ncc2Oc2ccc(OC)cc2)c(O)c1 | 6.59 µM
58 | COc1ccc(-c2cc(C3CCN(c4ncccc4[N+](=O)[O-])CC3)[nH]n2)cc1 | 5.01 µM
59 | COc1ccc(C(=O)NC(=S)NNC(=O)c2ccccc2O)cc1 | 1.44 µM
60 | C=CCOC(=O)C1=C(C)NC(SCC)=C(C#N)C1c1ccc(Cl)cc1 (centres undefined) | 5.92 µM
61 | COc1cc(OC)c(NC(=O)c2sc3ncn(CC(=O)N4CCN(c5ccccn5)CC4)c(=O)c3c2C)cc1Cl | 6.52 µM
62 | O=c1[nH]c(NNC(=S)NC2CCCCC2)nc2c1C1(CCCC1)Cc1ccccc1-2 | 1.35 µM
63 | Nc1ccc(N=Nc2ccccc2)c2ccccc12 | 6.71 µM
64 | COc1ccc(NC(=O)c2nc[nH]c2C(=O)N[C@@H](CC(C)C)C(=O)OC(C)(C)C)cc1 | 3.28 µM
65 | COc1cc(/C=C2/SC(=S)N(Cc3ccccc3)C2=O)cc(Cl)c1O | 2.58 µM
66 | O=C(CSc1nnc(-c2ccc3c(c2)OCO3)o1)Nc1ncc(C(F)(F)F)cc1Cl | 0.856 µM
67 | CC[C@H]1OC(=O)C[C@@H](O)[C@H](C)[C@@H](O[C@@H]2O[C@H](C)C[C@H](N(C)C)[C@H]2O)[C@@H](CC=O)C[C@@H](C)C(=O)C=C[C@]2(C)O[C@H]2[C@@H]1C | < 0.06 µM
68 | CC(=O)N(C1=C(Cl)C(=O)c2ccccc2C1=O)C1CCCCC1 | 9.36 µM
69 | CC1=NNC(=O)/C1=C\c1cn(-c2ccccc2)nc1-c1ccc(Cl)cc1 | 5.67 µM
70 | CCc1ccc(S(=O)(=O)/N=C2\C=C(Nc3ccc(O)cc3)C(=O)c3ccccc32)cc1 | 1.51 µM
71 | COc1ccc(N=Nc2cc(-c3ccccc3)ccc2O)cc1 | 13.1 µM
72 | COc1ccc(S(=O)(=O)Nc2cc3c4c(oc3c3ccccc23)CC(C)(C)CC4=O)cc1 | 6.26 µM
73 | Cc1ccc2c(Cl)cc(Cl)c(OCC(=O)NC(C)(C)C)c2n1 | 3.14 µM
74 | N#Cc1ccc(NC(=O)Nc2ccc(Cl)cc2)cc1 | 6.03 µM
75 | O=C(/C=C/c1ccco1)Oc1cc(Br)cc(/C=N/NC(=O)c2ccccc2O)c1 | 1.11 µM
76 | CC(C(=O)NC1C(=O)N2C(C(=O)O)=C(CSc3nnnn3C)CSC12)n1cc(Br)cn1 (centres undefined) | < 0.06 µM
77 | O=C(CCn1cnc(-c2ccccc2)c1-c1ccccc1)N/N=C/c1ccccc1O | 0.522 µM
78 | O=C(N/N=C/c1c(O)ccc2ccccc12)c1ccc(Br)o1 | 2.3 µM

Row | SMILES | EC50
79 | CCN(CC)c1ccc(NC(=O)c2c(C)noc2C)cc1 | > 15 µM (inactive)
80 | O=C(N/N=C/c1c(O)n(-c2ccccc2Cl)c(=O)c2ccccc12)C1COc2ccccc2O1 (centres undefined) | 3.74 µM
81 | c1csc(-c2csc3nc(CN4CCOCC4)nc(NCc4ccc5c(c4)OCO5)c23)c1 | 4.94 µM
82 | Clc1ccc(C2=CSC3=Nc4cccc5cccc(c45)N23)cc1 | 7.43 µM
83 | FC(F)(F)c1cccc(NC(=S)NNC(=S)Nc2cccc(C(F)(F)F)c2)c1 | 0.804 µM
84 | Cc1cc(NC(=O)c2ccc3c(c2)OCCO3)ccc1NC(=O)c1cc2ccccc2o1 | 10.1 µM
85 | O=C(Nc1cccnc1)Nc1cc(Cl)cc(Cl)c1 | 8.7 µM
86 | Cc1cc(/C=C2\SC(=S)NC2=O)c(C)n1-c1ccc(O)cc1 | 1.1 µM
87 | CCOc1ccc(/C=N/NC(=S)NC2CC3C=CC2C3)cc1 (centres undefined) | > 15 µM (inactive)
88 | COc1ccc(OCCn2c(NC(=O)c3ccco3)nc3ccccc32)cc1 | 3.38 µM
89 | N#Cc1nc(-c2ccc(OCc3ccccc3Cl)cc2)oc1NCCCn1ccnc1 | 3.27 µM
90 | CCCOc1ccc(Cc2c(Cl)nc(SC)nc2N(C)C)cc1 | 3.46 µM
91 | CC(=O)c1sc(N/N=C\c2c(O)ccc3ccccc23)nc1C | 4.08 µM
92 | N#Cc1ccc(-c2ccccc2)nc1SCC(=O)c1cc2ccccc2oc1=O | 0.596 µM
93 | Cc1nn(Cc2ccccc2Cl)c2sc(C(=O)Nc3ccccc3N3CCOCC3)cc12 | 2.92 µM
94 | O=C(Nc1nnc(C2CCCCC2)s1)c1ccc(Br)s1 | 3.99 µM
95 | O=C(Nc1ccccc1N1CCCC1)c1ccc2c(c1)OCO2 | > 15 µM (inactive)
96 | CC(C)Cn1c(N)c(C(=O)NCc2cccs2)c2nc3ccccc3nc21 | 5.37 µM
97 | CCOc1ccc(-c2nnc(NC(=O)c3ccc(OCC(C)C)c(OC)c3)o2)cc1 | 0.347 µM
98 | N#C/C(=C(/O)CN1CCN(c2ccccc2F)CC1)c1nc(-c2ccccc2)cs1 | 12.2 µM
99 | CN(C)c1ccc(O)c2c1CC1CC3C(N(C)C)C(=O)C(C(N)=O)=C(O)[C@@]3(O)C(=O)C1=C2O (some centres undefined) | 0.096 µM
100 | Cc1cc(C)c(OCC(=O)Nc2nc(-c3ccccn3)cs2)c(C)c1 | 1.4 µM
101 | Nc1c(C(=O)Nc2nc3ccccc3s2)sc2nc(-c3cccs3)ccc12 | 6.67 µM
102 | N#CC(C#N)=NNc1ccc([N+](=O)[O-])cc1 | 3.72 µM
103 | COc1ccc(Br)cc1/C=C/c1ccc2cccc(O)c2n1 | 0.138 µM
104 | CCn1c(=O)c(C(=O)NNC(=O)c2ccccc2F)c(O)c2ccccc21 | 3.17 µM
